Test results: patent US20120289574A1, “HYDRATE CRYSTALS” (AJINOMOTO CO., INC., priority 2008, published 2012)
Where two headings read alike, the source gives them in different places.

Columns and labels:
[1] = Water vapor adsorption/desorption test; assay type: physicochemical; conditions: water vapor adsorption/desorption curve, adsorption temperature 298 K
Description: A water vapor adsorption/desorption curve was plotted for the (2R,4R) monatin monosodium salt hydrate crystals (A) obtained in Example 1. The measurement conditions were as follows. The measured values are given in FIG. 5. • Device: Automatic vapor adsorption measuring device BELSORP18 made by Bel Japan Inc. • Measurement method: Volumetric gas adsorption method
• Adsorbed gas: H2O • Air thermostat temperature (K): 353 • Adsorption temperature (K): 298 • Saturation vapor pressure (kPa): 3.169 • Adsorption cross-sectional area (nm^2): 0.125 • Maximum adsorption pressure (relative pressure P/PO): desorption: 0.90; adsorption: 0.95 • Minimum adsorption pressure (relative pressure P/PO): desorption: 0.10; adsorption: 0.05 • Equilibration period: 500 s

[2] = for Rate of decomposition over time into the decomposition product X (lactone) / Rate of decomposition over time into the decomposition product Y (lactam): storage 120° C., open vial, HPLC area ratio relative to monatin; for Comparison of decomposition rates ((b)/(a)), decomposition product X (lactone) / Comparison of decomposition rates ((b)/(a)), decomposition product Y (lactam): Comp. Ex. 1 (b) relative to Example 4 (a), 120° C.
Description: A 50 mg quantity of the crystals of Example 4 and an identical quantity of the crystals of Comparative Example 1 were placed in separate 4 mL vials and stored at a temperature of 120° C. During this storage, the vials were left open. Following storage periods of 3 hours, 7 hours, and 24 hours, 2 mg of sample was removed and the rate of decomposition of the samples was determined by HPLC. Specifically, decomposition product X was a lactone compound (RT=21 minutes) and decomposition product Y was a lactam compound (RT=26 minutes). The individual area ratios (percentages) were calculated relative to the area of monatin.

[3] = Sweetness intensity by panelists relative to 5 percent sucrose aqueous solution; assay type: in vivo; conditions: average of values provided by seven panelists relative to 5 percent sucrose aqueous solution
Description: Sweetness intensity: 2,700-fold (average of values provided by seven panelists relative to 5 percent sucrose aqueous solution)

[4] = 24 hr, listed as Comparative Example 1

Row | Rate of decomposition over time into the decomposition product X (lactone) ([2]; 0 hr) [%] | Rate of decomposition over time into the decomposition product Y (lactam) ([2]; 0 hr) [%] | Rate of decomposition over time into the decomposition product X (lactone) ([2]; 3 hr) [%] | Rate of decomposition over time into the decomposition product Y (lactam) ([2]; 3 hr) [%] | Rate of decomposition over time into the decomposition product X (lactone) ([2]; 7 hr) [%] | Rate of decomposition over time into the decomposition product Y (lactam) ([2]; 7 hr) [%] | Rate of decomposition over time into the decomposition product X (lactone) ([2]; 24 hr) [%] | Rate of decomposition over time into the decomposition product Y (lactam) ([2]; 24 hr) [%] | Comparison of decomposition rates ((b)/(a)), decomposition product X (lactone) ([2]; 3 hr) | Comparison of decomposition rates ((b)/(a)), decomposition product Y (lactam) ([2]; 3 hr) | Comparison of decomposition rates ((b)/(a)), decomposition product X (lactone) ([2]; 7 hr) | Comparison of decomposition rates ((b)/(a)), decomposition product Y (lactam) ([2]; 7 hr) | Comparison of decomposition rates ((b)/(a)), decomposition product X (lactone) ([2]; 24 hr) | Comparison of decomposition rates ((b)/(a)), decomposition product Y (lactam) ([2]; 24 hr) | Comparison of decomposition rates ((b)/(a)), decomposition product X (lactone) [2, 4] [fold] | Comparison of decomposition rates ((b)/(a)), decomposition product Y (lactam) [2, 4] [fold] | Compound | Most stable hydrate [1] | Sweetness intensity [3]
1 |  |  |  |  |  |  |  |  |  |  |  |  |  |  |  |  | NC(CC(O)(Cc1c[nH]c2ccccc12)C(=O)O)C(=O)[O-].[Na+] [Example 1, (2R,4R) Monatin Monosodium Salt Hydrate Crystals (A)] | trihydrate | 
2 | 0 | 0 | 0.11 | 0.11 | 0.23 | 0.21 | 0.24 | 0.38 |  |  |  |  |  |  |  |  | N[C@H](C[C@](O)(Cc1c[nH]c2ccccc12)C(=O)O)C(=O)[O-].O.[Na+] [Example 4, (2R,4R) Monatin Monosodium Salt Monohydrate Crystals (B)] |  | 2,700 fold
3 | 0 | 0 | 3.38 | 2.08 | 4.64 | 3.63 | 6.67 | 7.46 | 30-fold | 19-fold | 21-fold | 17-fold | 27-fold | 20-fold | 27 | 20 | (2R,4R) monatin monosodium salt 0.2 ethanolate [Comp. Ex. 1] |  | 
